Columns and labels:
human D2R/β-arrestin [1] = biological target: T1, human D2R/β-arrestin (Homo sapiens (Human), UniProt P14416); assay: β-arrestin agonist assay (PathHunter); assay type: cell-based; details: CHO-K1 cells expressing human D2R/β-arrestin; agonist mode
Protocol: The detection reagent (9.6 μL, Buffer:Emerald II:Galactor-Star in a 19:5:1 ratio, i.e., 14.06 mL:3.7 mL:0.74 mL=18.5 mL) was then added to the agonist plates.

human D2R/β-arrestin [2] = biological target: T1, human D2R/β-arrestin; assay: Gi/cAMP agonist assay (Lance Ultra cAMP, forskolin); assay type: cell-based; details: CHO-K1 cells expressing human D2R/β-arrestin; agonist mode, 2.5 μM forskolin
Protocol: Eu-cAMP tracer solution (10 μl, PerkinElmer, 360 μl of Tracer in 17.64 ml kit buffer) and ULight-anti-cAMP solution (10 μl, 120 μL antibody in 17.88 ml kit buffer) was then added to each well.

human D2R/β-arrestin [3] = biological target: T1, human D2R/β-arrestin; assay: cell-based; details: β-arrestin Antagonist
Protocol: Cells were prepared for assays by growing cultures for up to 2 weeks (from about 6-20 passages). A vial of frozen cells was thawed in a water bath held at 37° C. The cells were then transferred into a 50 ml tube with 10 ml growth media. The vial was rinsed with growth media and the contents transferred to the 50 ml tube. The 50 ml tube was centrifuged at 1200 rpm for 5 minutes at room temperature. […] When the cells reached about 90% confluence (approximately 3 days between passages), the cells were passaged and used for either the agonist or antagonist assays as described below.
The cells were prepared for β-arrestin assays as described above. The assays were performed using a PathHunter® β-Arrestin Detecting Kit (DiscoveRX). The cells were grown on 225 mm dishes, then washed once with 1×PBS (Cellgro), followed by digestion with 2.5 ml 1× Detachment reagent (DRX 92-0009) for approximately 2 minutes.

human D2R/β-arrestin [4] = biological target: T1, human D2R/β-arrestin; assay: cell-based; details: cAMP Antagonist
[5] = CHO-K1 cells expressing human D2R/β-arrestin, antagonist mode, quinpirole 130 nM
[6] = CHO-K1 cells expressing human D2R/β-arrestin, antagonist mode, 2.5 μM forskolin and 2.7 nM quinpirole

T1 sequence (P14416 whole entry): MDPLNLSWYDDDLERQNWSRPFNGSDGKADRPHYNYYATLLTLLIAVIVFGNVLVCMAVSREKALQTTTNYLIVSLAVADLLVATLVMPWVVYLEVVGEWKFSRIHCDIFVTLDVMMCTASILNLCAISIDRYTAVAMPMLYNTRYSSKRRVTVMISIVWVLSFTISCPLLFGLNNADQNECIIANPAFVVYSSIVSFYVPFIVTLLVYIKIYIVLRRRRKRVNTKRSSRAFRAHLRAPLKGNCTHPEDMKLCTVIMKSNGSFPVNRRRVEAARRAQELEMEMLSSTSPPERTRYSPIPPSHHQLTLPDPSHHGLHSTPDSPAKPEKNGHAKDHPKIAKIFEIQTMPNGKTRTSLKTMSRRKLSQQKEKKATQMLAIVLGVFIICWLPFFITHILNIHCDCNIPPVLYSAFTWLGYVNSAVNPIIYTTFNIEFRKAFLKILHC

Compound | EC50 (human D2R/β-arrestin [1]) [µM] | EC50 (human D2R/β-arrestin [2]) [µM] | IC50 (human D2R/β-arrestin [3]; [5]) [µM] | IC50 (human D2R/β-arrestin [4]; [6]) [µM] | IC50 (human D2R/β-arrestin [3]) [µM] | IC50 (human D2R/β-arrestin [4]) [µM]
CC(C)Oc1cc(F)ccc1OCCN1CCC(C)(Oc2ccc(Cl)cc2)CC1 [Compound 191, 4-(4-chlorophenoxy)-1-(2-(4-fluoro-2-isopropoxyphenoxy)ethyl)-4-methylpiperidine] | > 30 | > 30 | 1 to 10 | 0.1 to 1 | – | –
CC(C)C1(Oc2ccc(Cl)cc2)CCN(CCOc2ccccc2C(F)(F)F)CC1 [Compound 192, 4-(4-chlorophenoxy)-4-isopropyl-1-(2-(2-(trifluoromethyl)phenoxy)ethyl)piperidine] | > 30 | 1 to 10 | 1 to 10 | 0.1 to 1 | – | –
C#CC1(Oc2ccc(Cl)cc2)CCN(CCOc2ccccc2C(F)(F)F)CC1 [Compound 193, 4-(4-chlorophenoxy)-4-ethynyl-1-(2-(2-(trifluoromethyl)phenoxy)ethyl)piperidine] | 1 to 10 | < 0.1 | 1 to 10 | > 30 | – | –
C#CC1(Oc2ccccc2)CCN(CCOc2ccccc2C(F)(F)F)CC1 [Compound 194, 4-ethynyl-4-phenoxy-1-(2-(2-(trifluoromethyl)phenoxy)ethyl)piperidine] | 0.1 to 1 | < 0.1 | 1 to 10 | > 30 | – | –
CC1(Oc2ccc(Cl)cc2)CCN(CCn2cccc(C(F)(F)F)c2=O)CC1 [Compound 195, 1-(2-(4-(4-chlorophenoxy)-4-methylpiperidin-1-yl)ethyl)-3-(trifluoromethyl)pyridin-2(1H)-one] | > 30 | > 30 | > 30 | > 30 | – | –
C[C@@]1(O)C[C@H]2CC[C@@H](C1)N2CCOc1ccccc1C(F)(F)F [Compound 196, (1R,3s,5S)-3-methyl-8-(2-(2-(trifluoromethyl)phenoxy)ethyl)-8-azabicyclo[3.2.1]octan-3-ol] | > 30 | > 30 | 10 to 30 | 1 to 10 | – | –
CNC(=O)C1(C)CCN(CCOc2ccccc2C(F)(F)F)CC1 [Compound 198, N,4-dimethyl-1-(2-(2-(trifluoromethyl)phenoxy)ethyl)piperidine-4-carboxamide] | > 30 | > 30 | < 0.1 | < 0.1 | – | –
CNC(=O)C1(C)CCN(CCOc2ccccc2)CC1 [Compound 199, N, 4-dimethyl-1-(2-phenoxyethyl)piperidine-4-carboxamide] | > 30 | 0.1 to 1 | 1 to 10 | > 30 | – | –
CNC(=O)C1(C)CCN(CCOc2ccccc2F)CC1 [Compound 200, 1-(2-(2-fluorophenoxy)ethyl)-N,4-dimethylpiperidine-4-carboxamide] | > 30 | 0.1 to 1 | 1 to 10 | 0.1 to 1 | – | –
CNC(=O)C1(C)CCN(CCOc2ccccc2OC)CC1 [Compound 201, 1-(2-(2-methoxyphenoxy)ethyl)-N,4-dimethylpiperidine-4-carboxamide] | > 30 | > 30 | 1 to 10 | 0.1 to 1 | – | –
CNC(=O)C1(C)CCN(CC2COc3ccccc3O2)CC1 (centres unmarked) [Compound 202, 1-((2,3-dihydrobenzo[b][1,4]dioxin-2-yl)methyl)-N,4-dimethylpiperidine-4-carboxamide] | > 30 | < 0.1 | 0.1 to 1 | 0.1 to 1 | – | –
CC1(C(=O)NC2CC2)CCN(CC2COc3ccccc3O2)CC1 (centres unmarked) [Compound 203, N-cyclopropyl-1-((2,3-dihydrobenzo[b][1,4]dioxin-2-yl)methyl)-4-methylpiperidine-4-carboxamide] | > 30 | < 0.1 | 0.1 to 1 | 1 to 10 | – | –
CC1(C(=O)Nc2ccccc2)CCN(CC2COc3ccccc3O2)CC1 (centres unmarked) [Compound 204, 1-((2,3-dihydrobenzo[b][1,4]dioxin-2-yl)methyl)-4-methyl-N-phenylpiperidine-4-carboxamide] | > 30 | 0.1 to 1 | 1 to 10 | 0.1 to 1 | – | –
CNCC1(C)CCN(C[C@H]2COc3ccccc3O2)CC1 [Compound 207, (S)-1-(1-((2,3-dihydrobenzo[b][1,4]dioxin-2-yl)methyl)-4-methylpiperidin-4-yl)-N-methylmethanamine] | 1 to 10 | 1 to 10 | 1 to 10 | > 30 | – | –
CC1(NC(=O)C(F)(F)F)CCN(C[C@H]2COc3ccccc3O2)CC1 [Compound 212, (S)—N-(1-((2,3-dihydrobenzo[b][1,4]dioxin-2-yl)methyl)-4-methylpiperidin-4-yl)-2,2,2-trifluoroacetamide] | 1 to 10 | < 0.1 | 0.1 to 1 | > 30 | – | –
CC(=O)N(C)C1(C)CCN(C[C@H]2COc3ccccc3O2)CC1 [Compound 213, (S)—N-(1-((2,3-dihydrobenzo[b][1,4]dioxin-2-yl)methyl)-4-methylpiperidin-4-yl)-N-methylacetamide] | > 30 | 1 to 10 | > 30 | > 30 | – | –

Compound | EC50 (human D2R/β-arrestin [1]) [µM] | EC50 (human D2R/β-arrestin [2]) [µM] | IC50 (human D2R/β-arrestin [3]; [5]) [µM] | IC50 (human D2R/β-arrestin [4]; [6]) [µM] | IC50 (human D2R/β-arrestin [3]) [µM] | IC50 (human D2R/β-arrestin [4]) [µM]
OCC1(Cc2ccc(Cl)cc2)CCN(CCOc2ccccc2C(F)(F)F)CC1 [Compound 214, (4-(4-chlorobenzyl)-1-(2-(2-(trifluoromethyl)phenoxy)ethyl)piperidin-4-yl)methanol] | > 30 | 1 to 10 | 1 to 10 | 1 to 10 | – | –
CC1(Cc2ccc(Cl)cc2)CCN(CCOc2ccccc2C(F)(F)F)CC1 [Compound 215, 4-(4-chlorobenzyl)-4-methyl-1-(2-(2-(trifluoromethyl)phenoxy)ethyl)piperidine] | 1 to 10 | 1 to 10 | 1 to 10 | 10 to 30 | – | –
FC(F)(F)c1ccccc1OCCN1CCC2(CC1)CC2c1ccc(Cl)cc1 (centres unmarked) [Compound 216, 1-(4-chlorophenyl)-6-(2-(2-(trifluoromethyl)phenoxy)ethyl)-6-azaspiro[2.5]octane] | > 30 | > 30 | 10 to 30 | > 30 | – | –
CN(C1CCCCC1)C1(C)CCN(CCOc2ccccc2C(F)(F)F)CC1 [Compound 217, N-cyclohexyl-N,4-dimethyl-1-(2-(2-(trifluoromethyl)phenoxy)ethyl)piperidin-4-amine] | > 30 | 0.1 to 1 | – | – | 1 to 10 | 1 to 10
CC1(C(=O)Nc2ccccc2)CCN(CCOc2ccccc2C(F)(F)F)CC1 [Compound 219, 4-methyl-N-phenyl-1-(2-(2-(trifluoromethyl)phenoxy)ethyl)piperidine-4-carboxamide] | > 30 | > 30 | 0.1 to 1 | 0.1 to 1 | – | –
CC1(C(=O)Nc2ccccc2)CCN(CCOc2ccccc2F)CC1 [Compound 220, 1-(2-(2-fluorophenoxy)ethyl)-4-methyl-N-phenylpiperidine-4-carboxamide] | > 30 | 0.1 to 1 | 0.1 to 1 | 0.1 to 1 | – | –
OC1(Cc2ccccc2F)CCN(CCOc2ccccc2)C1 (centres unmarked) [Compound 300, 3-(2-fluorobenzyl)-1-(2-phenoxyethyl)pyrrolidin-3-ol, reference compound] | > 30 | 0.1 to 1 | 10 to 30 | > 30 | – | –
COc1ccccc1OCCN1CCC(C)(O)CC1 [Compound 301, reference compound] | > 30 | > 30 | 1 to 10 | 0.1 to 1 | – | –
C#CC1(O)CCN(CCOc2ccccc2C(F)(F)F)CC1 [Compound 302, 4-ethynyl-1-(2-(2-(trifluoromethyl)phenoxy)ethyl)piperidin-4-ol, reference compound] | > 30 | > 30 | < 0.1 | < 0.1 | – | –
CC1(N)CCN(C[C@H]2COc3ccccc3O2)CC1 [Compound 303, reference compound] | > 30 | 0.1 to 1 | 10 to 30 | > 30 | – | –
CC1(Oc2cccc([N+](=O)[O-])c2)CCN(CCOc2ccccc2)C1 (centres unmarked) [Example 40, 3-Methyl-3-(3-nitrophenoxy)-1-(2-phenoxyethyl)pyrrolidine] | > 30 | 0.1 to 1 | 1 to 10 | > 30 | – | –
CC1(Oc2cccc(N)c2)CCN(CCOc2ccccc2)C1 (centres unmarked) [Example 41, 3-((3-methyl-1-(2-phenoxyethyl)pyrrolidin-3-yl)oxy)aniline] | > 30 | 0.1 to 1 | 10 to 30 | > 30 | – | –
CC1(Oc2cccc(Cl)c2)CCN(CCOc2ccccc2)C1 (centres unmarked) [Example 42, 3-(3-chlorophenoxy)-3-methyl-1-(2-phenoxyethyl)pyrrolidine] | > 30 | < 0.1 | 1 to 10 | > 30 | – | –
CC1(Oc2ccc([N+](=O)[O-])cc2)CCN(CCOc2ccccc2)C1 (centres unmarked) [Example 43, 3-Methyl-3-(4-nitrophenoxy)-1-(2-phenoxyethyl)pyrrolidine] | > 30 | > 30 | 1 to 10 | > 30 | – | –
CC1(Oc2ccc(N)cc2)CCN(CCOc2ccccc2)C1 (centres unmarked) [Example 44, 4-((3-methyl-1-(2-phenoxyethyl)pyrrolidin-3-yl)oxy)aniline] | 0.1 to 1 | < 0.1 | > 30 | > 30 | – | –
CC1(Oc2ccccc2[N+](=O)[O-])CCN(CCOc2ccccc2)C1 (centres unmarked) [Example 45, 3-methyl-3-(2-nitrophenoxy)-1-(2-phenoxyethyl)pyrrolidine] | > 30 | < 0.1 | 1 to 10 | > 30 | – | –

Reference: patent publication US11498896B2 (The Broad Institute, Inc., priority 2014, dated 2022)
